Experiments:
[1] = test system: Helicobacter pylori 43504; assay: Antibiofilm assay on established biofilm; type: cell-based; conditions: DMG added for additional 24 hours
Method: Antibiofilm assay. H. pylori culture at OD600=0.15 was added to a non-tissue culture treated polystyrene 96 well plate (Falcon) and incubated at 37° C. micro-aerobically without shaking for 48 hours. After the initial incubation, the supernatant was removed from the wells and BHI+0.4% β-cyclodextran was added back to the wells with or without Na2DMG at various concentrations. The plate was then incubated an additional 24 hours. Then, the crystal violet biofilm assay was performed as above.

[2] = test system: S. Typhimurium strain 14028; assay: Typhoid fever-mouse model (survival, organ burden); type: in vivo, BALB/c mice
Method: The bacterial burden in livers and spleens was determined three days after infection (FIG. 5).
Mouse experiments—Infection Experiments. […] Female BALB/c mice (Charles River, Boston, Mass.) were orally inoculated individually with the S. Typhimurium strain ATCC 14028, following previously described methods (Maier et al. 2004 Infect Immun 72:6294-6299; Maier et al. 2014 PLoS One 9:e110187; Lamichhane-Khadka R et al. 2015 Infect Immun 83:311-316). Briefly, S. Typhimurium cells grown overnight in LB were harvested, washed, and suspended in sterile PBS to a final OD of OD600 0.01 (approximately 10^7 CFU/mL) and 0.1-mL volumes (10^6 bacterial cells) were introduced orally into each mouse. […] The mice were observed twice daily, and morbidity was recorded. In addition, a fourth independent experiment was performed to determine organ (liver and spleen) bacterial burdens. In this experiment, two groups of eight mice each were inoculated with S. Typhimurium 14028. […] Infection with S.T. 14028 was done as described above. Mice were euthanized 72 hours after infection. Livers and spleens were removed and homogenized in sterile PBS. Dilutions of the homogenate were plated on bismuth sulfite agar plates (BD DIFCO, Becton Dickinson, Franklin Lakes, N.J.), a selective medium for Salmonella species. Colony forming units (CFU) were counted after overnight incubation of the plates at 37° C.

[3] = oral 3 mg DMG daily, three-day treatment
[4] = oral DMG 3 mg at 24 h and 30 min before and 24 h post infection, burden three days after infection, n=8

Structure (SMILES): CC(=NO)C(C)=NO [DMG, dimethylglyoxime]
- effect on established (48 hours of growth) biofilm [1]: able to counteract
- mortality [2, 3]: 100%
- postponement of time of death [2, 3]: two
- mouse survival ([2]; oral 3 mg DMG six hours post-infection then daily for nine days, n=4): 50%
- mouse survival ([2]; oral 3 mg DMG six hours post-infection then daily for seven days, n=8): 37.5%
- bacterial colonization of livers vs non-DMG treated group [2, 4]: Significantly lower
- bacterial colonization of spleens vs non-DMG treated group [2, 4]: Significantly lower
